Experimental data published in ChEMBL document CHEMBL1201862, “PubChem BioAssay data set” (2004).
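Five concentrations, 48 hours, 96-well plates. Here, GI50 denotes the concentration required for 50% inhibition of growth.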 The source made the active and inactive calls. Cut-off read from the data, not from the text of the source: active = GI50 up to about 1.1 µM and inactive = higher.

Columns and labels:
Test in all cases: DTP human tumour cell line panel, 48 h
BT-549 = tested on: BT-549
DMS-114 = tested on: DMS-114
DU-145 = tested on: DU-145
HL-60 = tested on: HL-60
HOP-62 = tested on: HOP-62
HOP-92 = tested on: HOP-92
HT-29 = tested on: HT-29
LOX IMVI = tested on: LOX IMVI
MCF7 = tested on: MCF7
MDA-MB-231 = tested on: MDA-MB-231
MDA-N = tested on: MDA-N
MOLT-4 = tested on: MOLT-4
NCI-H23 = tested on: NCI-H23
NCI-H460 = tested on: NCI-H460
RPMI-8226 = tested on: RPMI-8226
SK-OV-3 = tested on: SK-OV-3
SNB-75 = tested on: SNB-75
SR = tested on: SR
UACC-257 = tested on: UACC-257
UACC-62 = tested on: UACC-62

SMILES | GI50 (BT-549) | GI50 (DMS-114) | GI50 (DU-145) | GI50 (HL-60) | GI50 (HOP-62) | GI50 (HOP-92) | GI50 (HT-29) | GI50 (LOX IMVI) | GI50 (MCF7) | GI50 (MDA-MB-231) | GI50 (MDA-N) | GI50 (MOLT-4) | GI50 (NCI-H23) | GI50 (NCI-H460) | GI50 (RPMI-8226) | GI50 (SK-OV-3) | GI50 (SNB-75) | GI50 (SR) | GI50 (UACC-257) | GI50 (UACC-62)
CC1=NN(C(=O)c2ccccc2O)C(=O)/C1=C/c1ccccc1O | 0.438 µM (active) | 0.0853 µM (active) | 0.132 µM (active) | 0.409 µM (active) | 0.236 µM (active) | 1.27 µM (inactive) | 8.45 µM (inactive) | 0.568 µM (active) | 2.68 µM (inactive) | 0.381 µM (active) | 0.114 µM (active) | 0.295 µM (active) | 0.404 µM (active) | 0.209 µM (active) | 0.931 µM (active) | 0.0815 µM (active) | 0.0968 µM (active) | 0.251 µM (active) | 2.31 µM (inactive) | 0.057 µM (active)
O=C1C=C(Nc2ccccc2C(=O)CC(=O)C(=O)Nc2cccc(C(F)(F)F)c2)c2ccccc2C1=O | 8.93 µM (inactive) | 13 µM (inactive) | 78 µM (inactive) | 4.94 µM (inactive) | 40 µM (inactive) | 31.4 µM (inactive) | 57.4 µM (inactive) | 6.04 µM (inactive) | 15.2 µM (inactive) | 20 µM (inactive) | 12.6 µM (inactive) | 4.83 µM (inactive) | 13.6 µM (inactive) | 27.7 µM (inactive) | 17.6 µM (inactive) | 61.4 µM (inactive) | 50.4 µM (inactive) | 8.85 µM (inactive) | 15.3 µM (inactive) | 15.8 µM (inactive)
CCOC(=O)COc1ccccc1/C=C1\CCC(CN(C)C)C1=O (stereo not given) | – | 10.3 µM (inactive) | – | 0.607 µM (active) | 20.6 µM (inactive) | 10.9 µM (inactive) | 5.86 µM (inactive) | 2.22 µM (inactive) | 2.57 µM (inactive) | – | – | 2.11 µM (inactive) | 8.41 µM (inactive) | 10.8 µM (inactive) | 0.902 µM (active) | 17.5 µM (inactive) | 15.9 µM (inactive) | – | 5.66 µM (inactive) | 6.05 µM (inactive)
CN(C)CC1(Cc2ccccc2)CCC(Cc2ccccc2)C1=O (stereo not given) | 8.95 µM (inactive) | 15.8 µM (inactive) | 14.8 µM (inactive) | 3.29 µM (inactive) | 18 µM (inactive) | 17.4 µM (inactive) | 13 µM (inactive) | 6.9 µM (inactive) | 5.15 µM (inactive) | 11.2 µM (inactive) | 11 µM (inactive) | 2.88 µM (inactive) | 18.1 µM (inactive) | 12.2 µM (inactive) | 1.89 µM (inactive) | 21.8 µM (inactive) | 14.4 µM (inactive) | 4.47 µM (inactive) | 14.9 µM (inactive) | 16.5 µM (inactive)
COC(=O)C1=CC2C=CC(C1C(=O)OC)C1C(C(=O)OC)=C(C(=O)OC)C(C(=O)OC)=C(C(=O)OC)C21OC (stereo not given) | – | > 100 µM (inactive) | – | > 100 µM (inactive) | > 100 µM (inactive) | > 100 µM (inactive) | > 100 µM (inactive) | > 100 µM (inactive) | – | – | – | > 100 µM (inactive) | > 100 µM (inactive) | > 100 µM (inactive) | > 100 µM (inactive) | > 100 µM (inactive) | > 100 µM (inactive) | > 100 µM (inactive) | > 100 µM (inactive) | > 100 µM (inactive)
O=S1(=O)N2CN3CN(C2)CN1C3 | – | 23.7 µM (inactive) | – | 23.1 µM (inactive) | 234 µM (inactive) | > 100 µM (inactive) | 26 µM (inactive) | 36.8 µM (inactive) | 56.8 µM (inactive) | – | – | 105 µM (inactive) | 20.5 µM (inactive) | 51.5 µM (inactive) | 28.7 µM (inactive) | 230 µM (inactive) | 28.8 µM (inactive) | – | 30.1 µM (inactive) | 22.6 µM (inactive)
